Measured values taken from patent publication US9359308B2, “Pyrazine kinase inhibitors” (Portola Pharmaceuticals, Inc., priority 2011, dated 2016).

Each compound was assayed against T1, full length active recombinant SYK enzyme (Homo sapiens, UniProt P43405) (assay: Inhibition of Syk tyrosine phosphorylation activity (LANCE TR-FRET kinase assay)). Conditions: activity in the Syk assays, class symbols.
T1 construct: full length active recombinant SYK enzyme (Millipore, Calif.); purchased Millipore
Type: biochemical
Summary of the method: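 1 nM full-length active recombinant SYK phosphorylated 550 nM biotin-DEEDYESP-OH with 100 μM ATP in 50 mM Tris pH 7.5, 5 mM MgCl2, 1 mM DTT and 3% DMSO for 1 h at room temperature. After EDTA quench, Eu-anti-phosphotyrosine/SA-APC TR-FRET was read after 1 h. IC50s came from non-linear regression.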
`CC[C@@H](Nc1cnc(C(N)=O)c(Nc2cnc3ncccc3c2)n1)C(N)=O` [Example 380, (R)-3-(1,8-naphthyridin-3-ylamino)-5-(1-amino-1-oxobutan-2-ylamino)pyrazine-2-carboxamide] showed an IC50 of 1 to 10 nM.
With `CC[C@@H](Nc1cnc(C(N)=O)c(Nc2cnc3ccncc3c2)n1)C(N)=O` [Example 381, (R)-3-(1,6-naphthyridin-3-ylamino)-5-(1-amino-1-oxobutan-2-ylamino)pyrazine-2-carboxamide] the IC50 was 1 to 10 nM.
`NC(=O)CNc1cnc(C(N)=O)c(Nc2ccc3ncccc3c2)n1` [Example 382, 5-(2-amino-2-oxoethylamino)-3-(quinolin-6-ylamino)pyrazine-2-carboxamide] gave an IC50 of 10 to 100 nM.
Compound `CC[C@@H](Nc1cnc(C(N)=O)c(Nc2cnc3cccnc3c2)n1)C(N)=O` [Example 383, (R)-3-(1,5-naphthyridin-3-ylamino)-5-(1-amino-1-oxobutan-2-ylamino)pyrazine-2-carboxamide] has an IC50 of 10 to 100 nM.
`NC(=O)c1ncc(N[C@@H]2CCCC(F)(F)[C@@H]2N)nc1Nc1ccc2cccnc2c1` [Example 384, 5-((1R,2R)-2-amino-3,3-difluorocyclohexylamino)-3-(quinolin-7-ylamino)pyrazine-2-carboxamide] gave an IC50 of 10 to 100 nM.
`NC(=O)c1ncc(N[C@@H]2CCCC(F)(F)[C@@H]2N)nc1Nc1ccc2ccncc2c1` [Example 385, 5-((1R,2R)-2-amino-3,3-difluorocyclohexylamino)-3-(isoquinolin-7-ylamino)pyrazine-2-carboxamide] was tested, and the IC50 was 1 to 10 nM.
`CC[C@@H](Nc1cnc(C(N)=O)c(Nc2ccnc3ncccc23)n1)C(N)=O` [Example 386, (R)-3-(1,8-naphthyridin-4-ylamino)-5-(1-amino-1-oxobutan-2-ylamino)pyrazine-2-carboxamide] gave an IC50 of 1 to 10 nM.
`NC(=O)c1ncc(N[C@@H]2CCCC(F)(F)[C@@H]2N)nc1Nc1cc(-c2ccccc2)no1` [Example 387, 5-((1R,2R)-2-amino-3,3-difluorocyclohexylamino)-3-(3-phenylisoxazol-5-ylamino)pyrazine-2-carboxamide] gave an IC50 greater than 1000 nM.
`NC(=O)c1ncc(N[C@H](Cc2c[nH]c3ccccc23)C(N)=O)nc1Nc1ccc2ncccc2c1` [Example 388, (R)-5-(1-amino-3-(1H-indol-3-yl)-1-oxopropan-2-ylamino)-3-(quinolin-6-ylamino)pyrazine-2-carboxamide] was tested, and the IC50 was 1 to 10 nM.
Compound `Cc1cc(Nc2nc(N[C@H](Cc3c[nH]c4ccccc34)C(N)=O)cnc2C(N)=O)sn1` [Example 389, (R)-5-(1-amino-3-(1H-indol-3-yl)-1-oxopropan-2-ylamino)-3-(3-methylisothiazol-5-ylamino)pyrazine-2-carboxamide] has an IC50 of 1 to 10 nM.
Work on `Cc1cc(Nc2nc(N[C@H](CC3CCCCC3)C(N)=O)cnc2C(N)=O)sn1` [Example 390, (R)-5-(1-amino-3-cyclohexyl-1-oxopropan-2-ylamino)-3-(3-methylisothiazol-5-ylamino)pyrazine-2-carboxamide] yielded an IC50 of 10 to 100 nM.
Work on `Cn1ccc2cc(Nc3nc(N[C@@H]4CCCC(F)(F)[C@@H]4N)cnc3C(N)=O)ccc21` [Example 391, 5-((1R,2R)-2-amino-3,3-difluorocyclohexylamino)-3-(1-methyl-1H-indol-5-ylamino)pyrazine-2-carboxamide] yielded an IC50 of 1 to 10 nM.
Work on `Cn1ccc2c(Nc3nc(N[C@@H]4CCCC(F)(F)[C@@H]4N)cnc3C(N)=O)cccc21` [Example 392, 5-((1R,2R)-2-amino-3,3-difluorocyclohexylamino)-3-(1-methyl-1H-indol-4-ylamino)pyrazine-2-carboxamide] yielded an IC50 of 1 to 10 nM.
`CC[C@@H](Nc1cnc(C(N)=O)c(Nc2ccc3c(ccn3C)c2)n1)C(N)=O` [Example 393, (R)-5-(1-amino-1-oxobutan-2-ylamino)-3-(1-methyl-1H-indol-5-ylamino)pyrazine-2-carboxamide] was tested, and the IC50 was 1 to 10 nM.
For `CC[C@@H](Nc1cnc(C(N)=O)c(Nc2cccc3c2ccn3C)n1)C(N)=O` [Example 394, (R)-5-(1-amino-1-oxobutan-2-ylamino)-3-(1-methyl-1H-indol-4-ylamino)pyrazine-2-carboxamide], the IC50 was 1 to 10 nM.
Compound `Cc1cc(Nc2nc(N[C@@H](C(N)=O)c3ccccc3)cnc2C(N)=O)sn1` [Example 395, (R)-5-(2-amino-2-oxo-1-phenylethylamino)-3-(3-methylisothiazol-5-ylamino)pyrazine-2-carboxamide] has an IC50 of 1 to 10 nM.
Compound `Cn1ccc2cc(Nc3nc(N[C@H](CC4CC4)C(N)=O)cnc3C(N)=O)ccc21` [Example 396, (R)-5-(1-amino-3-cyclopropyl-1-oxopropan-2-ylamino)-3-(1-methyl-1H-indol-5-ylamino)pyrazine-2-carboxamide] has an IC50 of 1 to 10 nM.
For `Cn1ccc2c(Nc3nc(N[C@H](CC4CC4)C(N)=O)cnc3C(N)=O)cccc21` [Example 397, (R)-5-(1-amino-3-cyclopropyl-1-oxopropan-2-ylamino)-3-(1-methyl-1H-indol-4-ylamino)pyrazine-2-carboxamide], the IC50 was 1 to 10 nM.
`Cc1cc(Nc2nc(N[C@H](CC(F)(F)F)C(N)=O)cnc2C(N)=O)sn1` [Example 398, (R)-5-(1-amino-4,4,4-trifluoro-1-oxobutan-2-ylamino)-3-(3-methylisothiazol-5-ylamino)pyrazine-2-carboxamide] showed an IC50 of 1 to 10 nM.
With `Cc1cc(Nc2nc(N[C@H](CC[S+](C)[O-])C(N)=O)cnc2C(N)=O)sn1` (stereo partly drawn) [Example 399, 5-((2R)-1-amino-4-(methylsulfinyl)-1-oxobutan-2-ylamino)-3-(3-methylisothiazol-5-ylamino)pyrazine-2-carboxamide] the IC50 was 100 to 1000 nM.
In the case of `Cc1cc(Nc2nc(N[C@H](CCS(C)(=O)=O)C(N)=O)cnc2C(N)=O)sn1` [Example 400, (R)-5-(1-amino-4-(methylsulfonyl)-1-oxobutan-2-ylamino)-3-(3-methylisothiazol-5-ylamino)pyrazine-2-carboxamide], the IC50 is reported as 10 to 100 nM.
Compound `Cc1cc(Nc2nc(NC3(C(N)=O)CCCCC3)cnc2C(N)=O)sn1` [Example 401, 5-(1-carbamoylcyclohexylamino)-3-(3-methylisothiazol-5-ylamino)pyrazine-2-carboxamide] has an IC50 of 10 to 100 nM.
`COC[C@@H](Nc1cnc(C(N)=O)c(Nc2cc(C)ns2)n1)C(N)=O` [Example 402, (R)-5-(1-amino-3-methoxy-1-oxopropan-2-ylamino)-3-(3-methylisothiazol-5-ylamino)pyrazine-2-carboxamide] showed an IC50 of 10 to 100 nM.
For `CC[C@@H](Nc1cnc(C(N)=O)c(Nc2cc(-c3ccccc3)ns2)n1)C(N)=O` [Example 403, (R)-5-(1-amino-1-oxobutan-2-ylamino)-3-(3-phenylisothiazol-5-ylamino)pyrazine-2-carboxamide], the IC50 was 10 to 100 nM.
`CC[C@@H](Nc1cnc(C(N)=O)c(Nc2ccc3ncncc3c2)n1)C(N)=O` [Example 404, (R)-5-(1-amino-1-oxobutan-2-ylamino)-3-(quinazolin-6-ylamino)pyrazine-2-carboxamide] was tested, and the IC50 was 10 to 100 nM.
Work on `NC(=O)c1ncc(N[C@@H]2CCCC(F)(F)[C@@H]2N)nc1Nc1ccc2ncncc2c1` [Example 405, 5-((1R,2R)-2-amino-3,3-difluorocyclohexylamino)-3-(quinazolin-6-ylamino)pyrazine-2-carboxamide] yielded an IC50 of 1 to 10 nM.
`NC(=O)c1ncc(N[C@H](CC2CC2)C(N)=O)nc1Nc1cnc2cccnc2c1` [Example 406, (R)-3-(1,5-naphthyridin-3-ylamino)-5-(1-amino-3-cyclopropyl-1-oxopropan-2-ylamino)pyrazine-2-carboxamide] gave an IC50 of 1 to 10 nM.
`CC(C)C[C@@H](Nc1cnc(C(N)=O)c(Nc2cnc3cccnc3c2)n1)C(N)=O` [Example 407, (R)-3-(1,5-naphthyridin-3-ylamino)-5-(1-amino-4-methyl-1-oxopentan-2-ylamino)pyrazine-2-carboxamide] gave an IC50 of 1 to 10 nM.
For `Cc1cc(Nc2nc(N[C@@H]3CCOC[C@@H]3N)cnc2C(N)=O)sn1` [Example 408, 5-((3R,4R)-3-aminotetrahydro-2H-pyran-4-ylamino)-3-(3-methylisothiazol-5-ylamino)pyrazine-2-carboxamide], the IC50 was 1 to 10 nM.
`NC(=O)c1ncc(N[C@H](Cc2cccs2)C(N)=O)nc1Nc1cnc2cccnc2c1` [Example 409, (R)-3-(1,5-naphthyridin-3-ylamino)-5-(1-amino-1-oxo-3-(thiophen-2-yl)propan-2-ylamino)pyrazine-2-carboxamide] gave an IC50 of 1 to 10 nM.
`COC[C@@H](Nc1cnc(C(N)=O)c(Nc2cnc3cccnc3c2)n1)C(N)=O` [Example 410, (R)-3-(1,5-naphthyridin-3-ylamino)-5-(1-amino-3-methoxy-1-oxopropan-2-ylamino)pyrazine-2-carboxamide] showed an IC50 of 10 to 100 nM.
Work on `NC(=O)c1ncc(N[C@@H](C(N)=O)c2ccccc2)nc1Nc1cnc2cccnc2c1` [Example 411, (R)-3-(1,5-naphthyridin-3-ylamino)-5-(2-amino-2-oxo-1-phenylethylamino)pyrazine-2-carboxamide] yielded an IC50 of 10 to 100 nM.
`NC(=O)c1ncc(N[C@@H]2CCCC[C@@H]2N)nc1Nc1snc2ncccc12` [Example 412, 5-((1R,2S)-2-aminocyclohexylamino)-3-(isothiazolo[3,4-b]pyridin-3-ylamino)pyrazine-2-carboxamide] showed an IC50 of less than 1 nM.
`NC(=O)c1ncc(N[C@@H]2CCCC[C@@H]2N)nc1Nc1cnn2ccccc12` [Example 413, 5-(((1R,2S)-2-aminocyclohexyl)amino)-3-(pyrazolo[1,5-a]pyridin-3-ylamino)pyrazine-2-carboxamide] showed an IC50 of less than 1 nM.
With `NC(=O)c1ncc(N[C@@H]2CCCC[C@@H]2N)nc1N[C@H]1COc2ccccc2C1` [Example 415, 5-(((1R,2S)-2-aminocyclohexyl)amino)-3-((R)-chroman-3-ylamino)pyrazine-2-carboxamide] the IC50 was 10 to 100 nM.
`NC(=O)c1ncc(N[C@@H]2CCCC[C@@H]2N)nc1N[C@@H]1COc2ccccc2C1` [Example 416, 5-(((1R,2S)-2-aminocyclohexyl)amino)-3-((S)-chroman-3-ylamino)pyrazine-2-carboxamide] gave an IC50 of 100 to 1000 nM.
